These results are taken from patent US20230139826A1 (NONO INC., priority 2020, published 2023).

The nature of series [1]: In-vitro peptide degradation assay in rat plasma with rt-PA or TNK.
Description: To determine nerinetide stability in the presence of rt-PA in plasma, we use an in-vitro peptide content analysis by HPLC. In brief, Nerinetide or D-Tat-L-2B9c were spiked into rat or human plasma at a concentration of 65 ug/ml. rt-PA was added after the baseline time-point was collected, at the specified concentrations. rt-PA administration followed the clinical dosing approach [10% bolus dose followed by 60-mins infusion (90% of the dose)], using a Harvard apparatus pump. Sample collection following IV bolus was performed at 5 min, 15 min, 30 min and 45 min post-dose. At each time point, approximately 100 uL of plasma was collected from each vial using a fresh syringe. Plasma was then collected and stored at -80° C. until analyzed.
Nerinetide or D-Tat-L2B9c was extracted by precipitation with 1M perchloric acid. All analyses were performed on an Agilent 1260 Infinity Quaternary LC System (Agilent Technologies, Santa Clara, Calif., USA) and on a 25 cm [YMAA12S052546WT] C-18 RP-HPLC column (Agilent Technologies, Santa Clara, Calif., USA). The column was equilibrated with 10% acetonitrile with 0.1% TFA at 40° C. The eluent flow was 1.5 ml/min (gradient from 10% to 35% acetonitrile in 0.1% TFA) The UV trace was recorded at 220 nm. Concentrations of nerinetide or D-Tat-L-2B9c were derived from calibration standards obtained by spiking the agent into plasma.
A short description of series [2]: Nerinetide plasma levels in ESCAPE-NA1 subjects with and without alteplase. The series is classed as in vivo, human. On the procedure:
All patients had standard assessments of demographic characteristics, medical history, laboratory values and stroke severity (NIHSS score). In some patients, up to 6 consecutive blood samples were drawn following dosing for pharmacokinetic analysis of nerinetide levels.
Nerinetide plasma levels were obtained from 22 subjects in ESCPAE-NA1 and previously acquired data from 8 healthy volunteer subjects receiving a single dose of 2.6 mg/kg nerinetide intravenously. Time 0 is a preinfusion time-point. […] The bars represent standard error of the mean. […] In the presence of alteplase, nerinetide's maximum level was reduced by more than 50% with decline to background level by 60 minutes. […] (p=0.0119, mixed effects linear regression).

The target in another series is plasmin (Homo sapiens, UniProt P00747). On the procedure: (A) LC/MS spectrum of nerinetide after incubation with plasmin in PBS. 10 uL aliquots of nerinetide (18 mg/mL) and plasmin (1 mg/mL) were incubated in 500 uL tubes of phosphate-buffered saline at 37 C for 5 min and the reaction stopped by cooling to −80 C until tested. […] (B, C) In-vitro effect of rt-PA on nerinetide content in rat (B) and human (C) plasma. Nerinetide was spiked into the plasma samples at t=0 at a concentration of 65 ug/ml, whereas alteplase (rt-PA) was administered as a 60 min infusion at the indicated concentration (D, E) In-vivo effect of the simultaneous administration of nerinetide and rt-PA on Cmax (D) and AUC (E) in the rat. The nerinetide bolus and alteplase (60 min infusion) were started simultaneously through two separate intravenous lines. Symbols represent mean±SD. […] […] (SEQ ID NO:3) (Full-length NA-1, undigested), […] […] (SEQ ID NO:8), […] […] (SEQ ID NO:10).
Sequence of plasmin (P00747 581-810 limits assumed, species assumed): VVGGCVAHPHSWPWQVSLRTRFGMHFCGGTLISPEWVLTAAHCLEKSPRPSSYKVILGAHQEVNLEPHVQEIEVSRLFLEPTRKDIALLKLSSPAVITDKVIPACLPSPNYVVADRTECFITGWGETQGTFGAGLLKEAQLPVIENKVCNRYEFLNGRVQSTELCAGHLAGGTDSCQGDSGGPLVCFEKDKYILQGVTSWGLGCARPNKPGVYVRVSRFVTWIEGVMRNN
Sequence of plasmin (P00747 97-580 partner limits assumed, species assumed): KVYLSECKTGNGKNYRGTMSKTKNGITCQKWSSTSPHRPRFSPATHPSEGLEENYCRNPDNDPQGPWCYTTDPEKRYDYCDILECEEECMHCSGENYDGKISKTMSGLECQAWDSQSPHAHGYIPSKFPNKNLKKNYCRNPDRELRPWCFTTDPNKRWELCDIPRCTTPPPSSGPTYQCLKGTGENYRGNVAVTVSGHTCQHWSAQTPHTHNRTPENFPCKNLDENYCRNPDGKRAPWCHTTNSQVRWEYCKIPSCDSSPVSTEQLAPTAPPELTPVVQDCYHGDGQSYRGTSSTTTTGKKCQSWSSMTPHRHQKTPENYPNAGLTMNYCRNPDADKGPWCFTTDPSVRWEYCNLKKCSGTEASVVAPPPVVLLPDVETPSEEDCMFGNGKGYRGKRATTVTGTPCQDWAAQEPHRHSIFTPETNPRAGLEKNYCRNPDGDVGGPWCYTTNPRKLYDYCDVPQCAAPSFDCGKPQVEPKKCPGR
Direct ELISA of the indicated biotinylated peptides to the PDZ2 domain of PSD-95. […] Symbols indicate the mean±SD of triplicate experiments. […] (B). […] E,F. Time course of nerinetide or D-TAT-L-2B9c content in rat plasma (E) and human plasma (F) during a challenge with tenecteplase (TNK; 37.5 ug/ml or 6.25 ug/ml, respectively). […] (repeated measures two-way ANOVA with a post hoc Sidak's multiple comparisons test, *P<0.01). Symbols are means±SD. […]

Series [3] is described as follows: In-vivo pharmacokinetic analysis in rats. The note with it: rat. The protocol: Since the effect of nerinetide in the ESCAPE-NA1 trial was negated by alteplase, we next evaluated the effects of alteplase on pharmacokinetics (PK) of nerinetide in rats. Alteplase was administered at 0.9 mg/kg (human dose) and at 5.4 mg/kg (6 times the human dose) in an infusion that simulated the clinical protocol (10% bolus followed by a 60 min infusion of the remainder). Nerinetide was administered as an intravenous bolus at the start of the alteplase infusion at 7.6 mg/kg.
The goal of these study was to evaluate nerinetide PK parameter changes when in the presence of circulating rt-PA and plasmin. Male naïve rats received an intravenous administration of either nerinetide alone, nerinetide plus rt-PA (0.9 mg/kg) or nerinetide plus rt-PA (5.4 mg/kg). Sample collection was performed pre-dose and 0 min, 5 min, 10 min, 20 min, 50 min post-dose. At each time point, approximately 300 uL of blood was sampled from each animal using a fresh syringe. Blood samples were collected in previously prepared Eppendorf tubes [30 ul of EDTA 2.5%] and centrifuged for 20 minutes to separate plasma and cell components.
Plasma samples were stored at −80° C. until analyzed.
Changes in peptide concentration were analyzed using a two-way repeated measures ANOVA, followed by the Sidak correction for multiple comparisons. The pharmacokinetic (PK) parameters of peak plasma concentration (Cmax) and the area under the plasma concentration-time curve from 0 to last measured concentration (AUC) were obtained with PKsolver Software (USA) using a non-compartmental analysis and employing a linear interpolation. For stroke studies, differences between groups were tested using a One-way ANOVA with a Tukey's correction for multiple comparisons. […] Values for animals experiencing premature death due to any reason including subarachnoid hemorrhage or hemorrhagic transformation were imputed to reflect the worst neurological score and the maximum stroke volume achieved across all animals.

The mark [4] stands for this setting: nerinetide 7.6 mg/kg iv bolus with alteplase 0.9 mg/kg (human dose).
The mark [5] stands for this setting: nerinetide 7.6 mg/kg iv bolus with alteplase 5.4 mg/kg.

Residues, ends and D or L forms follow the SMILES beside them.

On to `CC[C@H](C)[C@H](NC(=O)[C@H](CO)NC(=O)[C@H](CO)NC(=O)[C@H](CC(C)C)NC(=O)[C@H](CCCCN)NC(=O)[C@H](CCCN=C(N)N)NC(=O)[C@H](CCCN=C(N)N)NC(=O)[C@H](CCCN=C(N)N)NC(=O)[C@H](CCC(N)=O)NC(=O)[C@H](CCCN=C(N)N)NC(=O)[C@H](CCCN=C(N)N)NC(=O)[C@H](CCCCN)NC(=O)[C@H](CCCCN)NC(=O)[C@H](CCCN=C(N)N)NC(=O)CNC(=O)[C@@H](N)Cc1ccc(O)cc1)C(=O)N[C@@H](CCC(=O)O)C(=O)N[C@@H](CO)C(=O)N[C@@H](CC(=O)O)C(=O)N[C@H](C(=O)O)C(C)C` [Nerinetide] (H-YGRKKRRQRRRKLSSIESDV-OH), for which the “nerinetide content in rat plasma on addition of alteplase” value in series [1] (65 ug/ml nerinetide, 37° C., alteplase over 60 minutes) is given as “reduced the nerinetide content in rat plasma in a concentration-dependent manner”. Besides, the “elimination in rat plasma with tenecteplase (TNK)” value in series [1] (TNK 37.5 ug/ml) is reported as “rapid elimination”. The “stability alone in rat plasma” value in series [1] (absence of alteplase) is listed as “stable”. Also, the “degradation in rat plasma with alteplase” value in series [1] (rt-PA 135 ug/ml) was “rapid degradation”. Moreover, the “time of decline of plasma level to background” value in series [2] (absence of alteplase) is “about 120 minutes”. For the same compound, in series [2] (absence of alteplase, 2.6 mg/kg iv), the “time at which plasma peak levels were reached” value was “ten”. Moreover, in series [2] (presence of alteplase), the AUC change result was “similarly reduced”, the “reduction of maximum plasma level” value is listed as “more than 50%” and the “time of decline of plasma level to background” value was found to be 60 min. Also, on plasmin, the “stability alone in phosphate buffered saline” value was “stable”. Also, the half-life (commonly how long it takes for the measured level to halve) in series [3] (male, plasma, intravenous, 7.6 mg/kg, human equivalent concentrations) lay within 5 to 10 min. In addition, in series [3] (setting [4]), the “change of AUC of nerinetide” value is reported as “non-significant reduction” and the “change of Cmax of nerinetide” value is listed as “non-significant reduction”. Moreover, in series [3] (setting [5]), the “lowering of the mean AUC of nerinetide” value was 44% and the “lowering of the mean Cmax of nerinetide” value is given as 49.5%.
